Test results reported in US9163032B2, “Esters of DCPLA and methods of treatment using the same” (Blanchette Rockefeller Neurosciences Institute, priority 2011, dated 2015).

How the values were obtained:
[1] = system: rat primary hippocampal neurons; assay: Neurotoxic effect of Aβ1-42 oligomers, MTT viability assay; format: cell-based; conditions: 20 hr
Description: Amylospheroids (ASPDs) and Aβ monomers were prepared following Hoshi, M., et al. (2003) Proc Natl Acad Sci USA 100, 6370-6375, and Noguchi, A., et al. (2009) J Biol Chem 284, 32895-32905. Briefly, Aβ1-42 was dissolved in 1,1,1,3,3,3-hexafluoro-2-propanol and incubated overnight at 4° C. and then 3 hr at 37° C. The dissolved Aβ1-42 was then lyophilized in 1.5 ml polypropylene centrifuge tubes at 40 nmol/tube concentration. For preparing the ASPDs, the lyophilized Aβ was dissolved in phosphate buffered saline (PBS) without Ca^2+ or Mg^2+ at less than 50 μM concentration and rotated for 14 hr at 4° C. After incubation, the Aβ solution was purified using a 100 kDa molecular mass cutoff filter (Amicon Ultra, Millipore) and the high-molecular weight fraction was saved to obtain the most toxic ASPDs. Aβ derived diffusible ligands (ADDLs) were produced as previously described. See Lambert, M. P et al., Proc. Natl. Acad. Sci. USA, 1998, 95: 6448-6453. Briefly, Aβ1-42 was solubilized at 5 mM in dimethyl sulfoxide, diluted to 100 μM in F12k medium and was incubated at 4° C. for 24 hr. The solution was centrifuged at 14000×g for 10 min at 4° C. and the supernatant was used as the ADDLs.
Viability of cells was measured by MTT assay. MTT (i.e., 3-(4,5-dimethylthiazol-2-yl)-2,5-diphenyltetrazolium bromide) is a tetrazolium salt that is cleaved to formazan by the succinate dehydrogenase, which is only active in viable cells. After solubilization of the formazan, the amount of dye can be quantified with a microplate reader at 570 nm along with a reference of 630 nm. For the MTT assay, 5×10^4 primary rat hippocampal neurons from 18-day-old embryonic Sprague-Dawley rat brains or SH-SY5Y cells were plated on each well of 24-well plates coated with poly-D-lysine. After treatment, the cells were washed with 1× PBS and were incubated with 200 μl of 1 mg/ml MTT solution (Sigma, USA) at 37° C. for 2 hr. Then the MTT-solution was removed and the cells were lysed with 200 μl isopropanol containing 0.04 M HCl and […] for 10 min. Finally, the reading was taken at 570 nm and 630 nm. All the samples were done in triplicate and the data were represented as the percentage of control.
To assess the neurotoxic effect of different sized oligomers, rat primary hippocampal neurons were treated with variable concentrations of these Aβ1-42 species for 20 hr. Viability of the treated cells was compared to untreated cells using the MTT assay described above.

[2] = system: Phosphatidylserine (C2) Binding Site; assay: 3H-DCPLA-ME binding to rat brain slices with C1 and C2 competitors (film-autoradiography); conditions: rat brain slices
Description: To determine the binding site of DCPLA-ME, ^3H-DCPLA-ME was incubated with rat brain slices in the absence and presence of known C1 and C2 competitors. More specifically, rat brain sections were fixed with formaldehyde, sliced, and incubated with (1)^3H-DCPLA-ME alone; (2)^3H-DCPLA-ME with DCPLA; (3)^3H-DCPLA-ME with Phorbol ester; or (4)^3H-DCPLA-ME and Bryostatin 1. After incubation, the slices were washed with a buffer made of 130 mM NaCl, 5 mM MgCl, 5 mM KCl, 1 mM EGTA, and 0.1% bovine serum albumin in 10 mM HEPES-NaOH, pH 7.4, dried, and analyzed with film-autoradiography.

PKC-ε = molecular target: T1, PKC-ε (Homo sapiens, UniProt Q02156); assay: PKC activation assay with purified PKC-ε isozyme (32P-phosphoprotein formation); format: biochemical; conditions: for Emax: % of control of PKCε at maximum; for Specificity ε/α: Activation of PKC-ε ÷ activation or inhibition of PKCα at 3xEC50; for EC50: lowest concentration that activates by 50% of maximum activation
T1 sequence (Q02156 1-737): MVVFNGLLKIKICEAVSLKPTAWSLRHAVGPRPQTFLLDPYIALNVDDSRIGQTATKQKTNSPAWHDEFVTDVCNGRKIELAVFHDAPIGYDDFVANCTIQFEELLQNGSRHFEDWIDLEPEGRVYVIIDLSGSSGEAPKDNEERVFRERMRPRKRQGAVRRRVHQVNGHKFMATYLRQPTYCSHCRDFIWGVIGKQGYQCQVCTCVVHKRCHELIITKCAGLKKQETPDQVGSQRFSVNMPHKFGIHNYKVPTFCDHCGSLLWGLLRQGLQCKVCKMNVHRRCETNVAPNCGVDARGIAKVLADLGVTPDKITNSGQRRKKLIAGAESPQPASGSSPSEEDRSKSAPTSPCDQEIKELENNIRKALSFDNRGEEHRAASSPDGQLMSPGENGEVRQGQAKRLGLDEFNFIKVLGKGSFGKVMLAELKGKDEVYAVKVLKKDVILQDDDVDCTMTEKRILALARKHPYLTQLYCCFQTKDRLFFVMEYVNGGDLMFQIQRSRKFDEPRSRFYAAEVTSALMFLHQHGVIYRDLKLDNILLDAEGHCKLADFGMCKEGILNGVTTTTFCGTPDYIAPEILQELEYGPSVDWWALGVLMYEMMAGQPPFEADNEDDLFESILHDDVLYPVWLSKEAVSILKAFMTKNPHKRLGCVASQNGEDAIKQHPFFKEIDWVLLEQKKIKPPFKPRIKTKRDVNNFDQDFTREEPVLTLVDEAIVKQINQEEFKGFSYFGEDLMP
Description: For measurement of PKC activation by DCPLA-ME, activation of recombinant PKC-α, PKC-ε, and PKC-δ was evaluated. DCPLA-ME induced activation was measured in the absence of diacylglycerol (DAG) and phosphatidylserine (PS) as described earlier. See Nelson, T. J. et al., J. Biol. Chem., 2009, 284: 34514-34521, and Kanno, T. et al., J. Cell Physiol., 2009, 221: 183-188. Individual enzymes were incubated for 15 min at 37° C. in the presence of 10 μM histones, 4.89 mM CaCl2, 10 mM MgCl2, 20 mM HEPES (pH 7.4), 0.8 mM EDTA, 4 mM EGTA, 4% glycerol, 8 μg/ml aprotinin, 8 μg/ml leupeptin, 2 mM benzamidine, and 0.5 μCi of [γ-^32P]ATP. Purified PKC-α, PKC-ε and PKC-δ were preincubated with DCPLA-ME for 5 min at room temperature. [^32P]-Phosphoprotein formation was measured by adsorption onto phosphocellulose.
To measure PKC, 10 μl of cell homogenate or purified PKC isozyme was incubated for 15 min at 37° C. in the presence of 10 μM histones, 4.89 mM CaCl2, 1.2 μg/μl phosphatidyl-L-serine, 0.18 μg/μl 1,2-dioctanoyl-sn-glycerol, 10 mM MgCl2, 20 mM HEPES (pH 7.4), 0.8 mM EDTA, 4 mM EGTA, 4% glycerol, 8 μg/ml aprotinin, 8 μg/ml leupeptin, and 2 mM benzamidine. [γ32P]ATP (0.5 μCi) was added and 32P-phosphoprotein formation was measured by adsorption onto phosphocellulose as described previously. See Nelson et al., J. Neurochemistry, 1995, 65: 2350-2357.
PKC activity of each compound was measured in the absence of diacylglycerol and phosphatidyl-L-serine and PKC-δ and PKC-ε were measured in the absence of added EGTA and CaCl2, as described by Kanno et al., J. Lipid Res., 2006, 47: 1146-1156. Low concentrations of Ca^2+ are needed because high Ca^2+ interacts with the PKC phosphatidylserine binding site and prevents activation. […] To determine their PKC isozyme specificity, the compounds were pre-incubated with purified isoforms of PKC for five minutes and the PKC activity was measured radiometrically.
The activation and PKC isozyme specificity of DCPLA-ethyl ester was measured following the procedures in Example 1(B) and (C), except that 9 ng of the purified isozyme was used and it was pre-incubated for 5 minutes at room temperature (FIG. 3). PKC-ε activation by DCPLA-tert-butyl ester and DCPLA-retinyl ester was measured in the same manner as DCPLA-ethyl ester (FIG. 3).
The EC50 values, PKC specificity, and activation for a select number of DCPLA esters was determined (see Table 1). EC50 values were determined by measuring the lowest concentration that activates by 50% of maximum activation. […] The specificity and activation of PKC by the various esters of DCPLA were determined from the measurements of activation of PKC isozymes.

Row | Compound | Emax (PKC-ε) [%] | Specificity ε/α (PKC-ε) | EC50 (PKC-ε) [nM] | other results
1 | oAβ < 100 kDa: filtrate from the 100 kDa filtration of ASPD preparation, 12 monomers on average |  |  |  | Viability of primary neuron ([1]; 50 nM): 76.41 ± 5.54 % of control; Viability of primary neuron ([1]; 50 nM, listed as OAβ<100 kDa filtrate): significantly cytotoxic; Viability of primary neuron ([1]; 500 nM): 62.94 ± 9.53 % of control; Viability of primary neuron ([1]; 1000 nM (1 μM)): 53.52 ± 2.43 % of control
2 | CCCC(=O)O[C@@H]1[C@@H](C)[C@@]2(O)[C@@H](C=C(CO)C[C@]3(O)C(=O)C(C)=C[C@@H]23)[C@@H]2C(C)(C)[C@]12OC(=O)CCC [Phorbol ester (PdBu)] |  |  |  | 3H-DCPLA-ME binding, 30 nM competitor [2]: 100%; 3H-DCPLA-ME binding, 1 μM competitor [2]: 81%
3 | CCCCCCCCC1CC1CCCCCCCCOC(=O)CCCCCCCC1CC1CC1CC1CCCCC (stereo not shown) [DCPLA-cyclopropanated oleyl ester] | 140 | 8.1 | 3 | concentration of maximal activation (PKC-ε; FIG. 2, FIG. 4): 10 nM; PKC isozyme specificity (PKC-ε; PKC-ε vs PKC-α and PKC-δ): relatively specific for PKC-ε; PKC-ε activation at its peak (PKC-ε; maximum, FIG. 1, 2, 4): 140 % of control
4 | CCCCCC1CC1CC1CC1CCCCCCCC(=O)OC(C)(C)C (stereo not shown) [DCPLA-t-butyl ester, DCPLA-tert-butyl ester] | 130 |  | 1 | form of activity vs. concentration response (PKC-ε): bimodal activation
5 | CCCCCC1CC1CC1CC1CCCCCCCC(=O)OCC (stereo not shown) [DCPLA-ethyl ester] | 126 | 4.2 | 3 | 
6 | CCCCCC1CC1CC1CC1CCCCCCCC(=O)O (stereo not shown) [DCPLA, 8-[2-(2-pentylcyclopropylmethyl)-cyclopropyl]-octanoic acid] | 300 | 7.4 | 1000 | 3H-DCPLA-ME binding, 30 nM competitor [2]: 86%; 3H-DCPLA-ME binding, 1 μM competitor [2]: 35%
7 | CCCCCC1CC1CC1CC1CCCCCCCC(=O)OC/C=C(C)/C=C/C=C(C)/C=C/C1=C(C)CCCC1(C)C (stereo not shown) [DCPLA-retinyl ester] | 129 |  | 10 | 
